According to patent US10988507B2, “Immunomodulators” (Bristol-Myers Squibb Company, priority 2016, dated 2021):
Where a SMILES comes first, the peptide text is derived from it. Bridges are numbered along the chain shown (N, C = ends). [ ]: non-standard residue; d: D form. The star is where a group is joined. Palmitoyl = CCCCCCCCCCCCCCCC(=O)*; Hyp = O=C(O)[C@@H]1C[C@@H](O)CN1; Myristoyl = CCCCCCCCCCCCCC(=O)*; NMeNle = CCCC[C@H](NC)C(=O)O; NMeA = CN[C@@H](C)C(=O)O

Experiments:
[1] = target: PD-1-Ig binding to PD-L1-TVMV-His (PD-L1-His) (Homo sapiens (Human), UniProt Q9NZQ7); assay: PD-1/PD-L1 Homogenous Time-Resolved Fluorescence (HTRF) binding assay; settings: PD-1-Ig (20 nM)/PD-L1-His (10 nM) binding assay
Sequence of PD-1-Ig binding to PD-L1-TVMV-His (PD-L1-His) (Q9NZQ7 other isoform, or with tags, fused parts or gaps): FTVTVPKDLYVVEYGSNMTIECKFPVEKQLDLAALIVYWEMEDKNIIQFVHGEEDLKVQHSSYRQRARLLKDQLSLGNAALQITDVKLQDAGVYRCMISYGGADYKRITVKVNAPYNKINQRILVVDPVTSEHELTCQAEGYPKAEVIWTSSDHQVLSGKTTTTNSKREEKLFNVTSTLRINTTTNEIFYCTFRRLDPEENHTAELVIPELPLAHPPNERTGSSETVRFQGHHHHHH
Excerpt: The ability of the macrocyclic peptides of the present disclosure to bind to PD-L1 was investigated using a PD-1/PD-L1 Homogenous Time-Resolved Fluorescence (HTRF) binding assay.
Homogenous Time-Resolved Fluorescence (HTRF) Assays of Binding of Soluble PD-1 to Soluble PD-L1. Soluble PD-1 and soluble PD-L1 refers to proteins with carboxyl-end truncations that remove the transmembrane-spanning regions and are fused to heterologous sequences, specifically the Fc portion of the human immunoglobuling G sequence (Ig) or the hexahistidine epitope tag (His). All binding studies were performed in an HTRF assay buffer consisting of dPBS supplemented with 0.1% (w/v) bovine serum albumin and 0.05% (v/v) Tween-20. For the PD-1-Ig/PD-L1-His binding assay, inhibitors were pre-incubated with PD-L1-His (10 nM final) for 15 m in 4 μl of assay buffer, followed by addition of PD-1-Ig (20 nM final) in 1 μl of assay buffer and further incubation for 15 m. PD-L1 fusion proteins from either human, cynomologous macaques, mouse, or other species were used. HTRF detection was achieved using europium crypate-labeled anti-Ig monoclonal antibody (1 nM final) and allophycocyanin (APC) labeled anti-His monoclonal antibody (20 nM final). Antibodies were diluted in HTRF detection buffer and 5 μl was dispensed on top of binding reaction. […]

[2] = oral administration, extensive first-pass metabolism in the liver; cited from earlier work

Row | IC50 [1] | SMILES | bioavailability [2]
1 | 1930 nM | CCCCCCCCCCCCCCCC(=O)NCCCC[C@@H]1NC(=O)[C@H](CCCC)N(C)C(=O)[C@H](CCCC)N(C)C(=O)[C@H](Cc2c[nH]c3ccccc23)NC(=O)[C@H](CO)NC(=O)[C@H](Cc2c[nH]c3ccccc23)NC(=O)[C@@H]2C[C@@H](O)CN2C(=O)[C@H](CC(C)C)NC(=O)[C@H](Cc2cnc[nH]2)NC(=O)[C@@H]2CCCN2C(=O)[C@H](CC(=O)O)NC(=O)[C@H](C)N(C)C(=O)[C@H](Cc2ccc(O)cc2)NC(=O)CSC[C@@H](C(=O)NCC(N)=O)NC1=O [Example 11058] ({CH2CO}-Y[NMeA]DPHL[Hyp]WSW[NMeNle][NMeNle]K(Palmitoyl)CG-NH2; thioether N-14) | –
2 | 690 nM | CCCCCCCCCCCCCC(=O)NCCCC[C@@H]1NC(=O)[C@H](CCCC)N(C)C(=O)[C@H](CCCC)N(C)C(=O)[C@H](Cc2c[nH]c3ccccc23)NC(=O)[C@H](CO)NC(=O)[C@H](Cc2c[nH]c3ccccc23)NC(=O)[C@@H]2C[C@@H](O)CN2C(=O)[C@H](CC(C)C)NC(=O)[C@H](Cc2cnc[nH]2)NC(=O)[C@@H]2CCCN2C(=O)[C@H](CC(=O)O)NC(=O)[C@H](C)N(C)C(=O)[C@H](Cc2ccc(O)cc2)NC(=O)CSC[C@@H](C(=O)NCC(N)=O)NC1=O [Example 11059] ({CH2CO}-Y[NMeA]DPHL[Hyp]WSW[NMeNle][NMeNle]K(Myristoyl)CG-NH2; thioether N-14) | –
3 | – | CCCC1O[C@@H]2C[C@H]3[C@@H]4CCC5=CC(=O)C=C[C@]5(C)[C@H]4[C@@H](O)C[C@]3(C)[C@]2(C(=O)CO)O1 (stereo partly drawn) [budesonide] | about 10%
